How the values were obtained:
Test in all cases: MIC by agar dilution
E. faecalis (11) = assay type: cell-based, Enterococcus faecalis; details: Enterococcus faecalis, E. faecalis (11)
Excerpt: (§1) A collection of 50 isolates of Staphylococci aureus included 36 strains of methicillin-resistant S. aureus (MRSA) frequently encountered in Europe, including strains isolated in Belgium, Finland, France, Germany and the United Kingdom. Another strain of MRSA, NCTC 11939, was included as a control, as well as a methicillin-sensitive control (NCTC 6571). Twelve other isolates of methicillin-sensitive Staphylococcus aureus (MSSA) recently collected from blood cultures were also included. Finally, 50 isolates of enterococci included two control strains (Enterococcus faecalis NCTC 755 and Enterococcus faecium NCTC 7171) and 48 isolates originating from clinical samples obtained from at least three different hospitals. The clinical isolates included E. faecalis (n=10), E. faecium (n=33), Enterococcus casseliflavus (n=3), Enterococcus gallinarum (n=2).
(§2) Determining the minimum inhibitory concentrations (MIC). All the MICs were determined using an agar dilution method. This required use of a medium without a defined antagonist (peptone-free), prepared as described previously with the inclusion of 2% horse blood lysed with saponin, 25.0 μg/mL of NAD and 25.0 μg/mL of hemin [17]. The compounds tested were dissolved in sterile deionised water and incorporated into the agar medium in a concentration range of 0.0031 to 8.0 μg/mL (0.016 to 32 μg/mL for gram-positive bacteria). All the isolates were prepared at a density equivalent to 0.5 McFarland units in sterile deionised water using a densitometer (approximately 1.5×10^8 CFU/mL), and then diluted to 1 for 15. An aliquot of 1 μL of each diluted suspension was then placed onto plates with a multispot inoculator to give the final recommended inoculation of 10 000 CFU/spot. The MICs of fosfomycin were determined by the same method, except that the IsoSensitest medium (Oxoid, Basingstoke, United Kingdom) was used, plus 25.0 μg/mL of glucose-6-phosphate (Sigma, Poole, United Kingdom) and an extended range of fosfomycin concentrations. All the dishes (including the antimicrobial-free controls) were incubated for 22 hours at 37° C. All the tests were performed on at least two independent replicates in order to examine the reproducibility.

E. cloacae (27) = assay type: cell-based, Enterobacter cloacae; details: Enterobacter cloacae, E. cloacae (27)
Excerpt: (§3) Bacterial isolates. […] These included Citrobacter freundii (n=5), other species of Citrobacter (n=4), Enterobacter aerogenes (n=1), Enterobacter cloacae (n=27), Escherichia coli (n=53), Klebsiella oxytoca (n=5), Klebsiella pneumoniae (n=87), Kluyvera spp (n=1), Proteus mirabilis (n=8), Providencia rettgeri (n=2), Salmonella spp (n=3), and Serratia marcescens (n=1). Among these 197 isolates, there were 128 (65%) carbapenemase producers, including; 87 with NDM-1, 9 with IMP, 11 with KPC, 14 with OXA-48 and 7 with VIM. The majority of the carbapenemase producers jointly produced broad-spectrum β-lactamases (BSBL) or cephalosporinases (AmpC β-lactamases), but the latter are not documented for the sake of clarity.
as §2

K. pneumoniae (87) = assay type: cell-based, Klebsiella pneumoniae; details: Klebsiella pneumoniae, K. pneumoniae (87)
Excerpt: as §3, §2

E. faecium (34) = assay type: cell-based, Enterococcus faecium; details: Enterococcus faecium, E. faecium (34)
Excerpt: as §1, §2

[1] = system: methicillin-resistant Staphylococcus aureus; assay type: cell-based; details: Staphylococcus aureus, MRSA (37)
Excerpt: as §1, §2

All Enterococci (50) = assay type: cell-based; details: All Enterococci (50)
Excerpt: as §1, §2

[2] = system: methicillin-sensitive Staphylococcus aureus; assay type: cell-based; details: MSSA (13)
Excerpt: as §1, §2

[3] = system: glycopeptide-resistant enterococci; assay type: cell-based; details: GRE (43)
Excerpt: as §1, §2

[4] = system: Enterobacteriaceae with a broad-spectrum β-lactamase; assay type: cell-based; details: BSBL (47)
Excerpt: as §3, §2

[5] = system: carbapenemase-producing Enterobacteriaceae; assay type: cell-based
Excerpt: as §3, §2

Enterobacteriaceae (197) = assay type: cell-based; details: Enterobacteriaceae (197)
Excerpt: as §3, §2

E. coli (53) = assay type: cell-based, Escherichia coli; details: E. coli (53)
Excerpt: as §3, §2

All S. aureus (50) = assay type: cell-based, Staphylococcus aureus; details: Staphylococcus aureus, All S. aureus (50)
Excerpt: as §1, §2

AmpC (22) = assay type: cell-based, Enterobacteriaceae
Excerpt: as §3, §2

[6] = read-out: Modal MIC (most frequent MIC)

C[C@@H]1O[C@@H]1P(=O)(O)O [Fosfomycin, disodium [(2R,3S)-3-methyloxiran-2-yl] phosphonate]
2 to 16 µg/mL: MIC Range [2]
0.125 to 8 µg/mL: MIC Range (E. coli (53))
4 µg/mL: MIC (K. pneumoniae (87); [6]) | MIC50 ([1]; read-out: MIC50) | MIC50 ([2]; Staphylococcus aureus, read-out: MIC50) | MIC ([2]; Staphylococcus aureus, read-out: Modal MIC (most frequent MIC)) | MIC50 [5] | MIC50 (Enterobacteriaceae (197); read-out: MIC50) | MIC (Enterobacteriaceae (197); [6]) | MIC50 (All S. aureus (50); read-out: MIC50)
> 32 µg/mL: MIC90 (E. faecalis (11); read-out: MIC90) | MIC90 (K. pneumoniae (87); read-out: MIC90) | MIC50 (E. faecium (34); read-out: MIC50) | MIC90 (E. faecium (34); read-out: MIC90) | MIC (E. faecium (34); [6]) | MIC50 (All Enterococci (50); read-out: MIC50) | MIC90 (All Enterococci (50); read-out: MIC90) | MIC (All Enterococci (50); [6]) | MIC50 ([3]; read-out: MIC50) | MIC90 ([3]; read-out: MIC90) | MIC [3, 6] | MIC90 ([4]; read-out: MIC90) | MIC [4, 6] | MIC90 (Enterobacteriaceae (197); read-out: MIC90) | MIC90 (AmpC (22))
32 µg/mL: MIC50 (E. faecalis (11); read-out: MIC50) | MIC (E. faecalis (11); [6]) | MIC90 (E. cloacae (27); read-out: MIC90) | MIC90 [5] | MIC (AmpC (22); [6])
16 µg/mL: MIC50 (E. cloacae (27); read-out: MIC50) | MIC (E. cloacae (27); [6]) | MIC90 ([1]; read-out: MIC90) | MIC90 ([2]; Staphylococcus aureus, read-out: MIC90) | MIC [5, 6] | MIC90 (All S. aureus (50); read-out: MIC90)
1 µg/mL: MIC90 (E. coli (53); Escherichia coli, read-out: MIC90)
8 µg/mL: MIC50 (K. pneumoniae (87); read-out: MIC50) | MIC [1, 6] | MIC50 ([4]; read-out: MIC50) | MIC (All S. aureus (50); [6])
0.5 µg/mL: MIC50 (E. coli (53); Escherichia coli, read-out: MIC50) | MIC (E. coli (53); Escherichia coli, read-out: Modal MIC (most frequent MIC))
